The record followed here is publication PMC11239938, “Inhibition of DUSP18 impairs cholesterol biosynthesis and promotes anti-tumor immunity in colorectal cancer” (Nature Communications, 2024).

In assay [1] the target is T1, DUSP18 (Homo sapiens, UniProt Q8NEJ0).
T1 construct: purified human DUSP18 for MST (Methods: cell samples lysed with RIPA buffer); recombinant GST-DUSP18-His for dephosphorylation assay; endogenous in HCT116 and SW480 cells for CETSA
T1 sequence (Q8NEJ0 1-188): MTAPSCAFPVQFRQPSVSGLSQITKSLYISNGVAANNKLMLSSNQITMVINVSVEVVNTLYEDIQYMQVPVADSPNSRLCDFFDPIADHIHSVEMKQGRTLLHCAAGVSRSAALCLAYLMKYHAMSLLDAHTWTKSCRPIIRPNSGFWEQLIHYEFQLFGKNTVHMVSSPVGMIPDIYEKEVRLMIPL
Kind of assay: microscale thermophoresis. As for the experimental part:
microscale thermophoresis on DUSP18 | Kd) value was determined as the binding of Lumacaftor to purified human DUSP18

For assay [2], the target named is T1, DUSP18. The assay is described as follows: in vitro dephosphorylation of Flag-USF1, phospho-immunoblot. The class given is biochemical. The note with it: 40 μM Lumacaftor; recombinant GST-DUSP18-His; substrate Flag-USF1 WT.

The term Kd denotes the constant that tells how readily two partners part at equilibrium. `Cc1ccc(NC(=O)C2(c3ccc4c(c3)OC(F)(F)O4)CC2)nc1-c1cccc(C(=O)O)c1` [Lumacaftor]: binding at DUSP18 [1] was put at a Kd of 29.5 ± 3.5 µM. In addition, on DUSP18 [2], the “in vitro dephosphorylation of Flag-USF1, phospho-immunoblot” value is “Lumacaftor inhibited the ability of purified DUSP18 to dephosphorylate WT USF1”.
